Data published in the supplement of paper PMC10307832.

What was measured:
Assay in all cases: relative viability (nuclei count vs DMSO), 5 days (fraction); higher = more cells survive
Bexarotene + Decitabine = compound: C=C(c1ccc(C(=O)O)cc1)c1cc2c(cc1C)C(C)(C)CCC2(C)C [Bexarotene] + Nc1ncn([C@H]2C[C@H](O)[C@@H](CO)O2)c(=O)n1 [Decitabine] (partner 2 µM)
Outline: (§1)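 Five library-drug doses in √10 steps were combined with a fixed anchor-drug dose, or a single drug was given alone, by pin tool to lung cancer cell lines in 1536-well plates the day after seeding. Nuclei were stained and counted after 5 days. Relative viability is the nuclei count in treated wells over that in vehicle wells, taken as the median of duplicate plates.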

Bexarotene + Crizotinib = compound: C=C(c1ccc(C(=O)O)cc1)c1cc2c(cc1C)C(C)(C)CCC2(C)C [Bexarotene] + C[C@@H](Oc1cc(-c2cnn(C3CCNCC3)c2)cnc1N)c1c(Cl)ccc(F)c1Cl [Crizotinib] (partner 1 µM)
Outline: as §1

Bexarotene + Phenformin = compound: C=C(c1ccc(C(=O)O)cc1)c1cc2c(cc1C)C(C)(C)CCC2(C)C [Bexarotene] + N=C(N)NC(=N)NCCc1ccccc1 [Phenformin] (partner 250 µM)
Outline: as §1

Bexarotene + Navitoclax = compound: C=C(c1ccc(C(=O)O)cc1)c1cc2c(cc1C)C(C)(C)CCC2(C)C [Bexarotene] + CC1(C)CCC(c2ccc(Cl)cc2)=C(CN2CCN(c3ccc(C(=O)NS(=O)(=O)c4ccc(N[C@H](CCN5CCOCC5)CSc5ccccc5)c(S(=O)(=O)C(F)(F)F)c4)cc3)CC2)C1 [Navitoclax] (partner 0.5 µM)
Outline: as §1

Cell Line	relative viability (Bexarotene + Decitabine; first compound 0.08 µM)	relative viability (Bexarotene + Decitabine; first compound 0.253 µM)	relative viability (Bexarotene + Decitabine; first compound 0.8 µM)	relative viability (Bexarotene + Decitabine; first compound 2.53 µM)	relative viability (Bexarotene + Decitabine; first compound 8 µM)	relative viability (Bexarotene + Crizotinib; first compound 0.08 µM)	relative viability (Bexarotene + Crizotinib; first compound 0.253 µM)	relative viability (Bexarotene + Crizotinib; first compound 0.8 µM)	relative viability (Bexarotene + Crizotinib; first compound 2.53 µM)	relative viability (Bexarotene + Crizotinib; first compound 8 µM)	relative viability (Bexarotene + Phenformin; first compound 0.08 µM)	relative viability (Bexarotene + Phenformin; first compound 0.253 µM)	relative viability (Bexarotene + Phenformin; first compound 0.8 µM)	relative viability (Bexarotene + Phenformin; first compound 2.53 µM)	relative viability (Bexarotene + Phenformin; first compound 8 µM)	relative viability (Bexarotene + Navitoclax; first compound 0.08 µM)	relative viability (Bexarotene + Navitoclax; first compound 0.253 µM)	relative viability (Bexarotene + Navitoclax; first compound 0.8 µM)	relative viability (Bexarotene + Navitoclax; first compound 2.53 µM)	relative viability (Bexarotene + Navitoclax; first compound 8 µM)
NCI-H727	1.02	0.748	0.826	0.847	0.885	0.856	0.912	0.87	0.677	0.708	0.51	0.481	0.574	0.515	0.503	0.467	0.38	0.452	0.354	0.405
NCI-H838	0.521	0.423	0.499	0.515	0.445	0.929	0.884	0.891	0.843	0.866	0.585	0.595	0.504	0.608	0.634	1.13	1.33	1.23	1.32	1.22
NCI-H1355	0.379	0.332	0.416	0.388	0.346	1.14	1.11	1.03	1.14	1.13	0.467	0.481	0.433	0.404	0.447	1.03	0.998	0.928	1.17	0.84
NCI-H1437	0.592	0.581	0.556	0.564	0.51	0.92	0.959	0.918	0.922	0.909	0.307	0.327	0.301	0.392	0.32	1.08	1.15	1.06	1.07	0.953
NCI-H1650	0.447	0.453	0.438	0.403	0.45	0.842	0.927	0.788	1.04	0.777	0.392	0.408	0.463	0.46	0.403	1.37	1.4	1.34	1.21	1.3
NCI-H1651	0.77	0.548	0.66	0.638	0.618	0.936	0.89	0.952	0.968	0.893	0.446	0.318	0.307	0.357	0.345	1.1	1.09	1.11	1.22	0.925
NCI-H1666	0.813	0.696	0.773	0.689	0.693	1.04	0.897	0.769	0.869	0.952	0.611	0.531	0.525	0.581	0.561	0.98	0.922	0.864	0.897	0.723
NCI-H1734	0.522	0.461	0.498	0.483	0.441	0.724	0.77	0.65	0.667	0.646	0.414	0.339	0.421	0.335	0.382	0.804	0.877	0.795	0.781	0.815
NCI-H1755	0.783	0.743	0.783	0.778	0.75	0.85	1.09	0.971	0.848	0.802	0.717	0.679	0.623	0.601	0.622	1.04	1.05	1.02	0.993	0.993
NCI-H1792	0.548	0.527	0.493	0.531	0.425	0.859	0.947	0.874	0.737	0.831	0.276	0.214	0.166	0.135	0.119	0.588	0.515	0.489	0.297	0.579
NCI-H1915	0.272	0.259	0.274	0.255	0.23	0.969	0.948	0.851	0.905	0.849	0.378	0.373	0.382	0.383	0.36	0.846	0.792	0.834	0.77	0.728
NCI-H1944	0.493	0.472	0.504	0.464	0.383	1.3	1.17	1.18	1.26	1.02	0.278	0.238	0.228	0.238	0.218	1.03	0.97	0.945	0.972	0.986
NCI-H1975	0.359	0.393	0.443	0.406	0.392	1.01	1.02	1.05	1.08	1.11	0.492	0.419	0.436	0.446	0.407	1.29	1.19	1.3	1.22	1.09
NCI-H1993	0.537	0.484	0.554	0.576	0.608	0.926	0.751	0.71	0.831	0.746	0.527	0.553	0.572	0.576	0.557	1.11	1.03	0.878	0.924	0.841
NCI-H2009	0.404	0.394	0.373	0.404	0.364	1.16	0.882	1.08	1.08	1.06	0.554	0.527	0.526	0.479	0.479	1.24	1.28	1.23	1.17	1.19
NCI-H2023	0.224	0.218	0.214	0.197	0.205	0.609	0.591	0.715	0.624	0.494	0.437	0.483	0.443	0.422	0.344	0.991	0.993	0.921	0.851	0.729
